Measured values as given in US10076533B2, “Acyclic nucleoside phosphonate diesters” (The Regents of the University of California, priority 2013, dated 2018).
Where two headings read alike, the source gives them in different places.

Experiments:
[1] = test system: Human peripheral blood monocyte (PBMC); test: Viability of PBMC by XTT reduction; settings: human PBMC, XTT reduction
[2] = test system: 2.2.15 cells; test: Cytotoxicity in 2.2.15 cells by neutral red uptake; settings: 2.2.15 cells, neutral red uptake
[3] = test system: Hepatitis B virus; test: HBV replication in 2.2.15 cells, HBV DNA blot hybridization; settings: HBV replication in 2.2.15 cells, 7 days treatment, HBV DNA blot hybridization
[4] = test system: HIV-192US727; test: Anti-HIV assay in human PBMC, supernatant reverse transcriptase activity
[5] = test system: MT-2 cells; test: Cytotoxicity in MT-2 cells, flow cytometry cell counts and viability; assay type: cell-based, human; settings: MT-2 cells, 72 hrs; read-out: CC50
Description: MT-2 cells were incubated with drug for 72 hrs and harvested. Flow count beads (Beckman Coulter, Miami, Fla.) were added to the cell suspension followed by propidium iodide staining and analysis using flow cytometer and the 50% cytotoxic concentration (CC50) was calculated from the cell counts and viability.

[6] = test system: Copenhagen strain of vaccinia virus; test: microbe, parasite or virus in culture; assay type: cell-based; settings: HFF cells infected with vaccinia virus (Copenhagen), 7 days, crystal violet; read-out: EC50
[7] = test system: HPV-11; test: HPV-11 origin replication in HEK 293 cells, qPCR; assay type: cell-based; settings: HPV-11 origin replication in HEK 293 cells, 48 hr, qPCR
Description: (§1) An origin-containing plasmid was co-transfected with HPV-11 E1 and E2 protein expression vectors into HEK 293 cells. At 4 hr post-transfection, cells were treated with compound dilutions and the cells were incubated for 48 hr. Replication of the virus origin was detected with DpnI and exonuclease III to remove unreplicated input bacterial plasmid DNA. Remaining replicated DNA was quantified by qPCR. Toxicity was determined by trypan blue exclusion.

[8] = test system: HEK 293 cells; test: Toxicity in HEK 293 cells by trypan blue exclusion (HPV-11 example); assay type: cell-based
Description: as §1

[9] = test system: human foreskin fibroblast (HFF) cells
[10] = test system: Human peripheral blood monocyte (PBMC)
[11] = test system: HIV-1LAI; test: HIV antiviral assay in MT-2 cells, p24 reduction
[12] = test system: human foreskin fibroblast (HFF) cells; test: Cytotoxicity in HFF cells in parallel to HSV-2 assay; settings: HFF cells
[13] = test system: human foreskin fibroblast (HFF) cells; test: Cytotoxicity in HFF cells in parallel to HSV-1 assay; settings: HFF cells, in parallel to HSV-1 assay
[14] = test system: COS7 cells; settings: uninfected COS7 cells, […]
[15] = test system: human foreskin fibroblast (HFF) cells; test: Cytotoxicity in HFF cells in parallel to cytomegalovirus assay; settings: HFF cells, in parallel to cytomegalovirus assay
[16] = test system: MAD-1 strain of JC virus; test: Antiviral effect in JC virus (MAD-1) infected COS7 cells, qPCR; settings: COS7 cells infected with JC virus (MAD-1), 7 days, qPCR
[17] = test system: human foreskin fibroblast (HFF) cells; settings: uninfected HFF cells, […]
[18] = test system: AD169 strain of human cytomegalovirus; test: Antiviral effect in HFF cells infected with human cytomegalovirus (AD169); settings: HFF cells infected with human cytomegalovirus (AD169), 14 days, crystal violet
[19] = test system: BK virus (Gardner strain); test: Antiviral effect in HFF cells infected with BK virus (Gardner strain), qPCR; settings: HFF cells infected with BK virus (Gardner strain), 14 days, qPCR

Compound: CCCCCCCCCCCCCCCCCCOCCOP(=O)(CO[C@H](C)Cn1cnc2c(N)ncnc21)Oc1ccccc1 (stereo partly drawn) [Compound 92, phenyl octadecyloxyethyl 9-(R)-[(2-phosphonomethoxy)propyl]adenine]
- CC50 [1]: 24.1 µM
- CC50 [2]: 68 µM
- EC50 [3]: 7.3 µM
- EC50 ([4]; HIV-192US727 infected human PBMC, 7 days, supernatant reverse transcriptase activity): < 0.005 µM

Compound: CCCCCCCCCCCCCCCCCCOC[C@H](COP(=O)(CO[C@H](CO)Cn1cnc2c(N)ncnc21)OCc1ccccc1)OCc1ccccc1 (stereo partly drawn) [Compound 230, benzyl 1-O-octadecyl-2-O-benzyl-sn-glyceryl 9-(S)-[(3-hydroxypropyl-2-phosphonomethoxy)propyl]adenine]
- CC50 [5]: 19 ± 2.6 µM
- EC50 [6]: 0.06 µM
- EC50 [7]: 0.56 µM
- CC50 [8]: > 10 µM
- CC50 [9]: 97.5 µM
- CC50 [10]: 0.55 µM
- Selectivity Index ([11]; CC50/EC50, MT-2 cells): 380
- EC50 ([11]; HIV-1 infected MT-2 cells, p24 reduction, four days): 0.05 ± 0.03 µM
- CC50 [12]: 37.1 µM
- CC50 [13]: 82.2 µM
- CC50 [14]: 18.4 µM
- CC50 [15]: 3.72 µM
- EC50 [16]: > 4 µM
- CC50 [17]: 19.6 µM
- EC50 [4]: < 0.1 µM
- EC50 [18]: < 0.03 µM
- EC50 [19]: 0.06 µM
